Reference: ChEMBL document CHEMBL5143561, “Neopestolides A-D, Diphenyl Ether Derivatives from the Plant Endophytic Fungus Neopestalotiopsis sp” (J Nat Prod, 2022)

What was measured:
Assay type in all cases: functional, cell-based
HCT-116 = assay: Antiproliferative activity against human HCT-116 cells assessed as reduction in cell viability measured after 72 hrs by MTT assay; settings: HCT-116, 72 h
HepG2 = assay: Antiproliferative activity against human HepG2 cells assessed as reduction in cell viability measured after 72 hrs by MTT assay; settings: HepG2, 72 h
J82 = assay: Antiproliferative activity against human J82 cells assessed as reduction in cell viability measured after 72 hrs by MTT assay; settings: J82, 72 h
SK-BR-3 = assay: Antiproliferative activity against human SK-BR-3 cells assessed as reduction in cell viability measured after 72 hrs by MTT assay; settings: SK-BR-3, 72 h

| Compound | IC50 (HCT-116) [µM] | IC50 (HepG2) [µM] | IC50 (SK-BR-3) [µM] | IC50 (J82) [µM] |
| --- | --- | --- | --- | --- |
| C=C1CO[C@H](c2ccc3c(c2OC)C(=O)OCc2cc(C)cc(O)c2O3)[C@H]1O | 57.1 | 30.1 | 86.5 | > 100 |
| COc1c(/C=C/[C@@](C)(O)CO)ccc2c1C(=O)OCc1cc(C)cc(O)c1O2 | 79.3 | 70.1 | > 100 | > 100 |
| COc1c([C@H]2OC[C@@](C)(O)[C@H]2O)ccc2c1C(=O)OCc1cc(C)cc(O)c1O2 | 47.1 | 80.1 | > 100 | > 100 |
| COc1c([C@@H]2OC[C@@](C)(O)[C@H]2O)ccc2c1C(=O)OCc1cc(C)cc(O)c1O2 | 74.3 | 99.7 | 88.5 | > 100 |

Stronger by IC50 (HCT-116), values ahead:

| IC50 (HCT-116) [µM] | IC50 (HepG2) [µM] | IC50 (SK-BR-3) [µM] | Compound | IC50 (J82) [µM] |
| --- | --- | --- | --- | --- |
| 45.6 | 16.8 | 29.1 | C=C1COC(c2ccc3c(c2OC)C(=O)OCc2cc(C)cc(O)c2O3)C1O (racemic) | > 100 |
| 22.4 | 12.4 | 43.8 | C=C(C)[C@H](C)[C@H](O)c1ccc2c(c1OC)C(=O)OCc1cc(C)cc(O)c1O2 | 62.4 |
| 20.7 | 21.6 | > 100 | C=C1CO[C@@H](c2ccc3c(c2OC)C(=O)OCc2cc(C)cc(O)c2O3)[C@@H]1O | > 100 |
